From article PMC7587356, “High-Throughput Screening for Inhibitors of the SARS-CoV-2 Protease Using a FRET-Biosensor” (Molecules, 2020)
Counter-ions that a name gives are not always drawn. Like-named read-outs stand apart in the source and are kept apart here.

Target: SARS-CoV-2 3CLpro (Severe acute respiratory syndrome coronavirus 2, UniProt P0DTD1)
Test: biochemical
Type: biochemical
Design: Replicate_1 / Replicate_2 / mean / mean (LOPAC_screen_w_protease): unit not given here
Conditions: for inhibition at 5 µM: 4 h
[1] = sheet LOPAC_screen_w_protease, LOPAC1280 primary screen with protease, 5 µM compound, mean of the two replicates, read-out: mean
[2] = sheet LOPAC_screen_w_protease, LOPAC1280 primary screen with protease, 5 µM compound, replicate 1, read-out: Replicate_1
[3] = sheet LOPAC_screen_w_protease, LOPAC1280 primary screen with protease, 5 µM compound, replicate 2, read-out: Replicate_2
[4] = sheet LOPAC_screen_w_protease, primary screen with protease, 5 µM, mean of two replicates
[5] = sheet LOPAC_screen_w_protease, primary screen with protease, 5 µM, replicate 1
[6] = sheet LOPAC_screen_w_protease, primary screen with protease, 5 µM, replicate 2
[7] = sheet LOPAC_screen_w_protease, LOPAC1280 primary screen with protease, 5 µM compound, mean of the two replicates
[8] = sheet LOPAC_screen_w_protease, LOPAC1280 primary screen with protease, 5 µM compound, replicate 1
[9] = sheet LOPAC_screen_w_protease, LOPAC1280 primary screen with protease, 5 µM compound, replicate 2
[10] = LOPAC1280 primary screen with protease, 5 µM compound, mean of two replicates
[11] = LOPAC1280 primary screen with protease, 5 µM compound, replicate 1
[12] = LOPAC1280 primary screen with protease, 5 µM compound, replicate 2
[13] = LOPAC1280 primary screen with protease, 5 µM compound, replicate 1, read-out: Replicate_1 (LOPAC_screen_w_protease)
[14] = LOPAC1280 primary screen with protease, 5 µM compound, replicate 2, read-out: Replicate_2 (LOPAC_screen_w_protease)
[15] = sheet LOPAC_screen_w_protease, primary screen with protease, 5 µM, mean of two replicates, read-out: mean
[16] = sheet LOPAC_screen_w_protease, primary screen with protease, 5 µM, replicate 1, read-out: Replicate_1
[17] = sheet LOPAC_screen_w_protease, primary screen with protease, 5 µM, replicate 2, read-out: Replicate_2
[18] = sheet LOPAC_screen_w_protease, primary screen of LOPAC1280 at 5 µM with protease, mean of the two replicates
[19] = sheet LOPAC_screen_w_protease, primary screen of LOPAC1280 at 5 µM with protease, replicate 1
[20] = sheet LOPAC_screen_w_protease, primary screen of LOPAC1280 at 5 µM with protease, replicate 2
[21] = sheet LOPAC_screen_w_protease, primary screen with protease, mean of two replicates
[22] = sheet LOPAC_screen_w_protease, primary screen with protease, replicate 1
[23] = sheet LOPAC_screen_w_protease, primary screen with protease, replicate 2
[24] = LOPAC1280 primary screen with protease, 5 µM compound, mean of the two replicates
[25] = sheet LOPAC_screen_w_protease, LOPAC1280 at 5 µM, mean of two replicates
[26] = sheet LOPAC_screen_w_protease, LOPAC1280 at 5 µM, replicate 1
[27] = sheet LOPAC_screen_w_protease, LOPAC1280 at 5 µM, replicate 2
[28] = sheet LOPAC_screen_w_protease, LOPAC1280 primary screen at 5 µM, with protease, mean of the two replicates
[29] = sheet LOPAC_screen_w_protease, LOPAC1280 primary screen at 5 µM, with protease, replicate 1
[30] = sheet LOPAC_screen_w_protease, LOPAC1280 primary screen at 5 µM, with protease, replicate 2

`CC(Cc1ccc(O)cc1)NCC(O)c1cc(O)cc(O)c1` (stereo not drawn) [Fenoterol hydrobromide] was tested, and the inhibition at 5 µM [1] was 5.3%, the inhibition at 5 µM [2] was 6.58% and the inhibition at 5 µM [3] was 4.02%.
Work on `O=C(O)c1cc(O)cc(C(=O)O)n1` [Chelidamic acid] yielded an inhibition at 5 µM (sheet LOPAC_screen_w_protease, primary screen with protease, compound at 5 µM, mean of two replicates, read-out: mean) of 3.14%, an inhibition at 5 µM (sheet LOPAC_screen_w_protease, primary screen with protease, compound at 5 µM, replicate 1, read-out: Replicate_1) of 2.7% and an inhibition at 5 µM (sheet LOPAC_screen_w_protease, primary screen with protease, compound at 5 µM, replicate 2, read-out: Replicate_2) of 3.58%.
`Cc1ccc(/C(=C\CN2CCCC2)c2ccccn2)cc1.Cl` [Triprolidine hydrochloride] gave a mean [4] of 0.01953, a Replicate_1 [5] of 0.1702 and a Replicate_2 [6] of -0.1311.
Compound `Cc1nnc2ccc(-c3cccc(C(F)(F)F)c3)nn12` has a mean [7] of 4.5531, a Replicate_1 [8] of 2.841 and a Replicate_2 [9] of 6.265.
Work on `C/C=C(/C)C(=O)O[C@H]1C(C)=C2[C@H]([C@@H]1OC(=O)CCCCCCC)[C@@](C)(OC(C)=O)C[C@H](OC(=O)CCC)[C@@]1(O)[C@H]2OC(=O)[C@@]1(C)O` [Thapsigargin] yielded an inhibition at 5 µM (sheet LOPAC_screen_w_protease, LOPAC1280 primary screen at 5 µM, with protease, mean of the two replicates, read-out: mean) of 0.567%, an inhibition at 5 µM (sheet LOPAC_screen_w_protease, LOPAC1280 primary screen at 5 µM, with protease, replicate 1, read-out: Replicate_1) of 2.46% and an inhibition at 5 µM (sheet LOPAC_screen_w_protease, LOPAC1280 primary screen at 5 µM, with protease, replicate 2, read-out: Replicate_2) of -1.32%.
For `O=C(Nc1ccccc1)c1cc([N+](=O)[O-])ccc1Cl` [GW9662], the “mean (LOPAC_screen_w_protease)” value [10] was 1.573, the “Replicate_1 (LOPAC_screen_w_protease)” value [11] was 2.013 and the “Replicate_2 (LOPAC_screen_w_protease)” value [12] was 1.1319.
`CC(C)[N+]1(C)[C@@H]2CC[C@H]1C[C@@H](OC(=O)C(CO)c1ccccc1)C2` (stereo partly drawn) [Ipratropium bromide] was tested, and the inhibition at 5 µM [13] was 1.02%, the inhibition at 5 µM [14] was 1.99% and the “mean (LOPAC_screen_w_protease)” value [10] was 1.504.
`Nc1ccncc1` [4-Aminopyridine] showed an inhibition at 5 µM [15] of -0.189%, an inhibition at 5 µM [16] of 0.392% and an inhibition at 5 µM [17] of -0.771%.
`Cc1nc2sccn2c(=O)c1CCN1CCC(=C(c2ccccc2)c2ccc(F)cc2)CC1` [Diacylglycerol kinase inhibitor I] was tested, and the mean [18] was 3.623, the Replicate_1 [19] was 4.4123 and the Replicate_2 [20] was 2.833.
In the case of `Oc1ccc(Cn2cc[nH]c2=S)cc1` [1-(4-Hydroxybenzyl)imidazole-2-thiol], the inhibition at 5 µM (sheet LOPAC_screen_w_protease, primary screen at 5 µM, mean of two replicates, read-out: mean (LOPAC screen with protease)) is reported as 35.7%, the inhibition at 5 µM (sheet LOPAC_screen_w_protease, primary screen at 5 µM, replicate 1, read-out: Replicate_1 (LOPAC screen with protease)) is reported as 39.5% and the inhibition at 5 µM (sheet LOPAC_screen_w_protease, primary screen at 5 µM, replicate 2, read-out: Replicate_2 (LOPAC screen with protease)) is reported as 31.9%.
For `COc1ccc2c(c1)c(CC(=O)O)c(C)n2Cc1ccc(F)cc1`, the mean [21] was 2.348, the Replicate_1 [22] was 3.38 and the Replicate_2 [23] was 1.3165.
For `Cc1ccc(OCC(O)C(C)NC(C)C)c2c1CCC2.Cl` (stereo not drawn) [ICI 118,551 hydrochloride], the “mean (LOPAC_screen_w_protease)” value [24] was 1.851, the “Replicate_1 (LOPAC_screen_w_protease)” value [11] was 3.391 and the “Replicate_2 (LOPAC_screen_w_protease)” value [12] was 0.3114.
Work on `CC(C)(CO)Cc1cc(C(C)(C)C)c(O)c(C(C)(C)C)c1` [CGP-7930] yielded a mean [25] of 1.164, a Replicate_1 [26] of 0.8273 and a Replicate_2 [27] of 1.5.
`NCCCCCCCCCCN` [1,10-Diaminodecane] gave an inhibition at 5 µM (sheet LOPAC_screen_w_protease, primary screen with protease, mean of two replicates, read-out: mean) of 2.36%, an inhibition at 5 µM (sheet LOPAC_screen_w_protease, primary screen with protease, replicate 1, read-out: Replicate_1) of 3.01% and an inhibition at 5 µM (sheet LOPAC_screen_w_protease, primary screen with protease, replicate 2, read-out: Replicate_2) of 1.71%.
In the case of `Oc1cccc2c(O)nccc12` [1,5-Isoquinolinediol], the “mean (LOPAC_screen_w_protease)” value [24] is reported as 2.037, the “Replicate_1 (LOPAC_screen_w_protease)” value [11] is reported as 1.193 and the “Replicate_2 (LOPAC_screen_w_protease)” value [12] is reported as 2.882.
`C[N+](C)(C)CCCCCC[N+](C)(C)C` [Hexamethonium bromide] was tested, and the inhibition at 5 µM [15] was 0.248%, the inhibition at 5 µM [16] was 1.66% and the inhibition at 5 µM [17] was -1.17%.
In the case of `NCCCCN` [Putrescine dihydrochloride], the “mean (LOPAC_screen_w_protease)” value is reported as 2.055, the inhibition at 5 µM (read-out: Replicate_1 (LOPAC_screen_w_protease)) is reported as 4.37% and the inhibition at 5 µM (read-out: Replicate_2 (LOPAC_screen_w_protease)) is reported as -0.258%.
With `COC1=C(OC)C(=O)c2ccccc2C1=O` [2,3-Dimethoxy-1,4-naphthoquinone] the mean [28] was 0.8524, the Replicate_1 [29] was 0.1505 and the Replicate_2 [30] was 1.554.
With `CCCC(C)(COC(N)=O)COC(=O)NC(C)C` (stereo not drawn) [Carisoprodol] the inhibition at 5 µM (read-out: Replicate_1) was -0.28%, the inhibition at 5 µM (read-out: Replicate_2) was 2.2% and the inhibition at 5 µM (read-out: mean) was 0.96%.
`Cl.Clc1ccc(Cn2c(CN3CCCC3)nc3ccccc32)cc1` [Clemizole hydrochloride] gave a mean (sheet LOPAC_screen_w_protease, primary screen with protease, compound at 5 µM, mean of two replicates) of 3.083, a Replicate_1 (sheet LOPAC_screen_w_protease, primary screen with protease, compound at 5 µM, replicate 1) of 2.873 and a Replicate_2 (sheet LOPAC_screen_w_protease, primary screen with protease, compound at 5 µM, replicate 2) of 3.2929.
`Cl.Cl.Cl.Ic1ccc(N2CCN(Cc3c[nH]c4ncccc34)CC2)cc1` [L-750,667 trihydrochloride] gave a mean [7] of 4.601, a Replicate_1 [8] of 3.085 and a Replicate_2 [9] of 6.117.
Work on `CCCN1CCC[C@@H]2Cc3nc(N)ncc3C[C@H]21.Cl.Cl` [Quinelorane dihydrochloride] yielded a mean [7] of 6.182, a Replicate_1 [8] of 6.527 and a Replicate_2 [9] of 5.838.
In the case of `CN(C)CCCCSC(=N)N.Cl.Cl` [SKF 91488 dihydrochloride], the “mean (LOPAC screen with protease)” value (sheet LOPAC_screen_w_protease, primary screen at 5 µM, mean of two replicates) is reported as 12.1431, the “Replicate_1 (LOPAC screen with protease)” value (sheet LOPAC_screen_w_protease, primary screen at 5 µM, replicate 1) is reported as 13.4504 and the “Replicate_2 (LOPAC screen with protease)” value (sheet LOPAC_screen_w_protease, primary screen at 5 µM, replicate 2) is reported as 10.8358.
With `CC(=O)Oc1ccccc1C(=O)O` [Acetylsalicylic acid] the inhibition at 5 µM [13] was 1.9%, the inhibition at 5 µM [14] was 1.38% and the “mean (LOPAC_screen_w_protease)” value [10] was 1.637.
Compound `COCC(=O)O[C@]1(CCN(C)CCCc2nc3ccccc3[nH]2)CCc2cc(F)ccc2[C@@H]1C(C)C` [Mibefradil dihydrochloride] has an inhibition at 5 µM [1] of 4.42%, an inhibition at 5 µM [2] of 3.3% and an inhibition at 5 µM [3] of 5.54%.
In the case of `Cl.Nc1ccn([C@@H]2O[C@H](CO)[C@@H](O)[C@@H]2O)c(=O)n1`, the mean [21] is reported as 2.239, the Replicate_1 [22] is reported as 1.947 and the Replicate_2 [23] is reported as 2.5319.
`N[C@@H](Cn1oc(=O)[nH]c1=O)C(=O)O` [(+)-Quisqualic acid] showed a mean [28] of 0.4364, a Replicate_1 [29] of 1.4914 and a Replicate_2 [30] of -0.6187.
`Cl.O[Si](CCCN1CCCCC1)(c1ccc(F)cc1)C1CCCCC1` (stereo not drawn) was tested, and the mean [25] was 1.239, the Replicate_1 [26] was 2.5476 and the Replicate_2 [27] was -0.06894.
`C[N+](C)(C)CCOC(N)=O` [Carbachol] was tested, and the inhibition at 5 µM [13] was 1.69%, the inhibition at 5 µM [14] was 1.06% and the “mean (LOPAC_screen_w_protease)” value [10] was 1.3763.
`CC(C)=CCC/C(C)=C/CC/C(C)=C/CSc1ccccc1C(=O)O` [Farnesylthiosalicylic acid] showed a mean [4] of 0.3894, a Replicate_1 [5] of 1.928 and a Replicate_2 [6] of -1.149.
In the case of `CC[C@@H]1Cc2cc(O)ccc2C2=C1c1ccc(O)cc1C[C@H]2CC`, the mean [18] is reported as 3.66, the Replicate_1 [19] is reported as 4.43 and the Replicate_2 [20] is reported as 2.89.
Work on `Cl.Cl.Cn1cnc(CCN)c1` [1-Methylhistamine dihydrochloride] yielded a mean [7] of 4.368, a Replicate_1 [8] of 3.059 and a Replicate_2 [9] of 5.677.
`CCC1(C)CC(=O)NC1=O` (stereo not drawn) [Ethosuximide] was tested, and the inhibition at 5 µM [13] was 4.21%, the inhibition at 5 µM [14] was -0.21% and the “mean (LOPAC_screen_w_protease)” value [24] was 1.998.
`C=C1C(=O)O[C@H]2[C@H]1CC/C(C)=C/CC[C@@]1(C)O[C@@H]21` [Parthenolide] was tested, and the inhibition at 5 µM (sheet LOPAC_screen_w_protease, primary screen of LOPAC1280 at 5 µM with protease, mean of the two replicates, read-out: mean) was 3.43%, the inhibition at 5 µM (sheet LOPAC_screen_w_protease, primary screen of LOPAC1280 at 5 µM with protease, replicate 1, read-out: Replicate_1) was 3.99% and the inhibition at 5 µM (sheet LOPAC_screen_w_protease, primary screen of LOPAC1280 at 5 µM with protease, replicate 2, read-out: Replicate_2) was 2.86%.
`C[C@@]12C(=O)OC(=O)[C@]1(C)[C@H]1CC[C@@H]2O1` [Cantharidin] showed an inhibition at 5 µM (read-out: Replicate_1) of 1.95%, an inhibition at 5 µM (read-out: Replicate_2) of 0.0268% and an inhibition at 5 µM (read-out: mean) of 0.988%.
